Measured values as given in patent US9975868B2, “7,8-dihydoxyflavone and 7,8-substituted flavone derivatives, compositions, and methods related thereto” (EMORY UNIVERSITY, priority 2012, dated 2018).
“Also recorded” adds a separate entry of the source.

Experiments:
[1] = brain 7,8-DHF concentration after oral administration; type: in vivo, mice
[2] = in vivo PK study, plasma 7,8-DHF after oral administration; design: species or system mice
Procedure: Two months old mice were orally administrated 78 mg/kg of the R7, and mice were sacrificed at different time points (n=3), the plasma was then harvested and analyzed by HPLC/MS.
Derivatives with various moieties on the catechol group in 7,8-DHF were synthesized. These derivatives were monitored for intestine microsomal stability, liver microsomal stability and plasma stability.

[3] = system: mouse model of Alzheimer's disease; conditions: cited from earlier work
TrkB = biological target: T1, TrkB (Mus musculus, UniProt P15209); experiment: TrkB signaling in mouse brain by immunoblotting after oral administration; type: in vivo; conditions: R7 78 mg/kg oral
T1 construct: from tissue; host or cells: mouse brain (lysates after oral dosing)
T1 sequence (P15209 32-821): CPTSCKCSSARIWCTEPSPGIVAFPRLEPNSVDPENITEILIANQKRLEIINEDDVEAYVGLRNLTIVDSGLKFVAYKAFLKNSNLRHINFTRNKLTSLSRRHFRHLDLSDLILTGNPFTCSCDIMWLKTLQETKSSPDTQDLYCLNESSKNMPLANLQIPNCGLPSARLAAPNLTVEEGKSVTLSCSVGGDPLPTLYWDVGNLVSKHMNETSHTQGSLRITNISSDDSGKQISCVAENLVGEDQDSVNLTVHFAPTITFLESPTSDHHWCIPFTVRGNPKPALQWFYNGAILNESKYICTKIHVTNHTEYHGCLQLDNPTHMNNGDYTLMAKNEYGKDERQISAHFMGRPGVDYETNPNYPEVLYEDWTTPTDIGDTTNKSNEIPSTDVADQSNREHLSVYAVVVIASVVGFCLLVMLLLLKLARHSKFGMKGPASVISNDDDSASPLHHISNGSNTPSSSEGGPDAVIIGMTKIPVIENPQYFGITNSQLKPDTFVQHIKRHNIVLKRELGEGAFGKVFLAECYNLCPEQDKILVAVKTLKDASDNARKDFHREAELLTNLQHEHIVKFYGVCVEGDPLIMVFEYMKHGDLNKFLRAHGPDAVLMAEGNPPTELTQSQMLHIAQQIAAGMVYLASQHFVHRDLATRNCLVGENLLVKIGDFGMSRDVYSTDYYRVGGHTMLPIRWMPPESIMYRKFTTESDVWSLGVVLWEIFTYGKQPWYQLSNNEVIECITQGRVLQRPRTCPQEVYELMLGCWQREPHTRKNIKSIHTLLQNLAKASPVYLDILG
Procedure: R7 (78 mg/kg equal to about 50 mg/kg of 7,8-DHF) was administered orally. The mice were sacrificed at different intervals. The brain lysates were analyzed by immunobotting with various antibodies including p-TrkB 816, Total TrkB, p-Akt and total Akt.
The TrkB signaling in mouse brains was monitored from the in vivo PK study. […] The pharmacodynamic (PD) study fits well with the in vivo PK data, underscoring that the released 7,8-DHF from R7 triggers the long-lasting TrkB signalings in mouse brain.

[4] = chemical stability in pH 1.2 and 7.4 buffer; type: physicochemical
Procedure: Metabolism studies indicate that the catechol group is conjugated by glucuronidation, sulfation and methylation in liver, which leads to the poor oral bioavailability upon oral administration. […] Most of 7,8-DHF is conjugated and metabolized within 30 min. Derivatives with various moieties on the catechol group in 7,8-DHF were synthesized. These derivatives were monitored for intestine microsomal stability, liver microsomal stability and plasma stability. In addition, compounds with favorable chemical stability and Caco-2 permeability were examined.
R7 and R13 were chosen to analyze their in vivo PK profiles. The concentration of 7,8-DHF's in brain was examined at different time points after oral administrated 72.5 mg/kg, which is the molecular equivalent of 50 mg/kg of 7,8-DHF. In plasma, 7,8-DHF peaked at around 100 min for R13, whereas administration of the parent compound 7,8-DHF, occurred at 10 min. The oral bioavailability of R13 was around 10%.

With `O=c1cc(-c2ccccc2)oc2c(O)c(O)ccc12` [7,8-DHF, 7,8-dihydroxyflavone, reference compound] the “7,8-DHF detectability in brain” value ([1]; oral administration of parent compound) was “not detectable after 4 h”, the “time within which most is conjugated and metabolized” value ([2]; C57BL6, mouse, in vivo) was at most 30 min and the bioavailability ([2]; C57BL6, mouse, in vivo, po) was about 5%. The “memory deficits and BACE1 elevation” value [3] was “reverses”.

In the case of `CN(C)C(=O)Oc1ccc2c(=O)cc(-c3ccccc3)oc2c1OC(=O)N(C)C` [R7, 4-oxo-2-phenyl-4H-chromene-7,8-diyl bis(dimethylcarbamate)], the “7,8-DHF plasma concentrations compared with parent compound” value ([2]; R7 78 mg/kg vs 7,8-DHF 50 mg/kg P.O.) is reported as “higher than parent compound”, the “7,8-DHF detectable in plasma” value ([2]; at 8 h after oral R7) is reported as “detectable” and the “TrkB activation (p-TrkB) in mouse brain” value (TrkB) is reported as “potently activated; also recorded: triggers TrkB activation”. For the same compound, the “downstream p-Akt signaling activation in mouse brain” value (TrkB) was “potently activated; also recorded: downstream Akt signaling activation”, the “chemical stability in buffer” value ([4]; pH 1.2) was “stable” and the “chemical stability in buffer” value ([4]; pH 7.4) was “stable”.

For `CNC(=O)Oc1ccc2c(=O)cc(-c3ccccc3)oc2c1OC(=O)NC` [R13, 4-oxo-2-phenyl-4H-chromene-7,8-diyl bis(methylcarbamate)], the “7,8-DHF oral bioavailability and brain concentrations versus parent compound” value ([1]; FIG. 4, oral administration) was “improves” and the “7,8-DHF brain availability” value ([1]; oral 72.5 mg/kg) was “significantly elongated”.
